In US10550105B2 (Ribon Therapeutics Inc., priority 2018, dated 2020):

biological target: PARP7 (Homo sapiens (Human), UniProt Q7Z3E1); assay: Enzymatic assay for inhibition of PARP7: TR-FRET displacement of biotinylated Probe A from the TIPARP active site; type: binding; conditions: Table A-1
In short: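 TR-FRET, ex 320 nm / em 615 and 665 nm. Signal ratio reflects complex formation.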

PARP7, sequence (Q7Z3E1 whole entry): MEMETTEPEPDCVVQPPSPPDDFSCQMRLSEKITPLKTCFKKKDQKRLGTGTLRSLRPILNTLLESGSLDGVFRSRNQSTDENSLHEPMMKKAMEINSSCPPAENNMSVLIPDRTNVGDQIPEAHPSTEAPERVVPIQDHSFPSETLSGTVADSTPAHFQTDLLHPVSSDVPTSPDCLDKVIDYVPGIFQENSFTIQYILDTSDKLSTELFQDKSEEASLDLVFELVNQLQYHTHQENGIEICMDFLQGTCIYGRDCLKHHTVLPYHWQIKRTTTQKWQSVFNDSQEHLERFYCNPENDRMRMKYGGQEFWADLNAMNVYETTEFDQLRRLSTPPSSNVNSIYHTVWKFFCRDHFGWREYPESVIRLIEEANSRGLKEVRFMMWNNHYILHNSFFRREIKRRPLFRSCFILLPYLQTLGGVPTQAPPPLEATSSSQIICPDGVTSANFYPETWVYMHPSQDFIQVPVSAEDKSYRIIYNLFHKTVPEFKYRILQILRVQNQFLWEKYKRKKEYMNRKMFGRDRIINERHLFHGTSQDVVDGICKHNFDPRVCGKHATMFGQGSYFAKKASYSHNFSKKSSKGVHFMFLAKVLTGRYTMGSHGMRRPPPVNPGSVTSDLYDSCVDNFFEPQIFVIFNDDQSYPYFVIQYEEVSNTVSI

IC50 [µM] | Compound
< 0.1 | COCC1C[C@@H](COCCC(=O)N2CCN(c3ccc(C#N)cn3)CC2)N(c2cn[nH]c(=O)c2C(F)(F)F)C1 (stereo partly drawn) [Example 139, 6-[4-(3-[[(2S)-4-(methoxymethyl)-1-[6-oxo-5-(trifluoromethyl)-1,6-dihydropyridazin-4-yl]pyrrolidin-2-yl]methoxy]propanoyl)piperazin-1-yl]pyridine-3-carbonitrile]
< 0.1 | C[C@@H](OCCC(=O)N1CCN(c2ccc(C#N)cn2)CC1)[C@@H]1CCCN1c1cn[nH]c(=O)c1C(F)(F)F [Example 140A, 6-(4-[3-[(1R)-1-[(2S)-1-[6-oxo-5-(trifluoromethyl)-1,6-dihydropyridazin-4-yl]pyrrolidin-2-yl]ethoxy]propanoyl]piperazin-1-yl)pyridine-3-carbonitrile]
0.1 to 1 | C[C@H](OCCC(=O)N1CCN(c2ccc(C#N)cn2)CC1)[C@@H]1CCCN1c1cn[nH]c(=O)c1C(F)(F)F [Example 140B, 6-(4-[3-[(1S)-1-[(2S)-1-[6-oxo-5-(trifluoromethyl)-1,6-dihydropyridazin-4-yl]pyrrolidin-2-yl]ethoxy]propanoyl]piperazin-1-yl)pyridine-3-carbonitrile]
< 0.1 | N#Cc1ccc(N2CCN(C(=O)C[C@@H]3CC[C@@H]([C@@H]4CCCN4c4cn[nH]c(=O)c4C(F)(F)F)O3)CC2)nc1 [Example 141A, 6-(4-[2-[(2S,5S)-5-[(2S)-1-[6-oxo-5-(trifluoromethyl)-1,6-dihydropyridazin-4-yl]pyrrolidin-2-yl]oxolan-2-yl]acetyl]piperazin-1-yl)pyridine-3-carbonitrile]
0.1 to 1 | N#Cc1ccc(N2CCN(C(=O)C[C@@H]3CC[C@H]([C@@H]4CCCN4c4cn[nH]c(=O)c4C(F)(F)F)O3)CC2)nc1 [Example 141C, 6-(4-[2-[(2S,5R)-5-[(2S)-1-[6-oxo-5-(trifluoromethyl)-1,6-dihydropyridazin-4-yl]pyrrolidin-2-yl]oxolan-2-yl]acetyl]piperazin-1-yl)pyridine-3-carbonitrile]
0.1 to 1 | N#Cc1ccc(N2CCN(C(=O)C[C@H]3CC[C@H]([C@@H]4CCCN4c4cn[nH]c(=O)c4C(F)(F)F)O3)CC2)nc1 [Example 141D, 6-(4-[2-[(2R,5R)-5-[(2S)-1-[6-oxo-5-(trifluoromethyl)-1,6-dihydropyridazin-4-yl]pyrrolidin-2-yl]oxolan-2-yl]acetyl]piperazin-1-yl)pyridine-3-carbonitrile]
≥ 1 | CC(=O)N1CCC[C@@H]2CN(c3cn[nH]c(=O)c3C(F)(F)F)C[C@@H]21 [Example 142, 5-[(4aR,7aR)-1-acetyl-octahydro-1H-pyrrolo[3,4-b]pyridin-6-yl]-4-(trifluoromethyl)-2,3-dihydropyridazin-3-one]
≥ 1 | CC(=O)N1CCC[C@H]2CN(c3cn[nH]c(=O)c3C(F)(F)F)C[C@H]21 [Example 143, 5-[(4aS,7aS)-1-acetyl-octahydro-1H-pyrrolo[3,4-b]pyridin-6-yl]-4-(trifluoromethyl)-2,3-dihydropyridazin-3-one]
< 0.1 | N#Cc1ccc(N2CCN(C(=O)CNCC[C@@H]3c4ccccc4CN3c3cn[nH]c(=O)c3C(F)(F)F)CC2)nc1 [Example 144A, 6-[4-[2-([2-[(1R)-2-[6-oxo-5-(trifluoromethyl)-1,6-dihydropyridazin-4-yl]-2,3-dihydro-1H-isoindol-1-yl]ethyl]amino)acetyl]piperazin-1-yl]pyridine-3-carbonitrile]
0.1 to 1 | N#Cc1ccc(N2CCN(C(=O)CNCC[C@H]3c4ccccc4CN3c3cn[nH]c(=O)c3C(F)(F)F)CC2)nc1 [Example 144B, 6-[4-[2-([2-[(1S)-2-[6-oxo-5-(trifluoromethyl)-1,6-dihydropyridazin-4-yl]-2,3-dihydro-1H-isoindol-1-yl]ethyl]amino)acetyl]piperazin-1-yl]pyridine-3-carbonitrile]
< 0.1 | N#Cc1ccc(N2CCN(C(=O)C[C@@H](N)COC[C@@H]3CCCN3c3cn[nH]c(=O)c3C(F)(F)F)CC2)nc1 [Example 145A, 6-[4-[(3R)-3-amino-4-[[(2S)-1-[6-oxo-5-(trifluoromethyl)-1,6-dihydropyridazin-4-yl]pyrrolidin-2-yl]methoxy]butanoyl]piperazin-1-yl]pyridine-3-carbonitrile; formic acid]
< 0.1 | N#Cc1ccc(N2CCN(C(=O)C[C@H](N)COC[C@@H]3CCCN3c3cn[nH]c(=O)c3C(F)(F)F)CC2)nc1 [Example 145B, 6-[4-[(3S)-3-amino-4-[[(2S)-1-[6-oxo-5-(trifluoromethyl)-1,6-dihydropyridazin-4-yl]pyrrolidin-2-yl]methoxy]butanoyl]piperazin-1-yl]pyridine-3-carbonitrile; formic acid]
< 0.1 | N#Cc1ccc(N2CCN(C(=O)CCNC[C@@H]3c4ccccc4CN3c3cn[nH]c(=O)c3C(F)(F)F)CC2)nc1 [Example 146A, 6-[4-[3-([[(1S)-2-[6-oxo-5-(trifluoromethyl)-1,6-dihydropyridazin-4-yl]-2,3-dihydro-1H-isoindol-1-yl]methyl]amino)propanoyl]piperazin-1-yl]pyridine-3-carbonitrile]
< 0.1 | O=C(C[C@@H]1CC[C@@H]([C@@H]2CCCN2c2cn[nH]c(=O)c2C(F)(F)F)O1)N1CCN(c2ncc(Cl)cn2)CC1 [Example 147A, 5-[(2S)-2-[(2S,5S)-5-[2-[4-(5-chloropyrimidin-2-yl)piperazin-1-yl]-2-oxoethyl]oxolan-2-yl]pyrrolidin-1-yl]-4-(trifluoromethyl)-2,3-dihydropyridazin-3-one]
< 0.1 | O=C(C[C@H]1CC[C@@H]([C@@H]2CCCN2c2cn[nH]c(=O)c2C(F)(F)F)O1)N1CCN(c2ncc(Cl)cn2)CC1 [Example 147B, 5-[(2S)-2-[(2S,5R)-5-[2-[4-(5-chloropyrimidin-2-yl)piperazin-1-yl]-2-oxoethyl]oxolan-2-yl]pyrrolidin-1-yl]-4-(trifluoromethyl)-2,3-dihydropyridazin-3-one]
< 0.1 | O=C(C[C@H]1CC[C@H]([C@@H]2CCCN2c2cn[nH]c(=O)c2C(F)(F)F)O1)N1CCN(c2ncc(Cl)cn2)CC1 [Example 147D, 5-[(2S)-2-[(2R,5R)-5-[2-[4-(5-chloropyrimidin-2-yl)piperazin-1-yl]-2-oxoethyl]oxolan-2-yl]pyrrolidin-1-yl]-4-(trifluoromethyl)-2,3-dihydropyridazin-3-one]
< 0.1 | O=C(C[C@@H]1CC[C@@H]([C@@H]2CCCN2c2cn[nH]c(=O)c2C(F)(F)F)O1)N1CCN(c2ccc(Cl)cn2)CC1 [Example 148A, 5-[(2S)-2-[(2S,5S)-5-[2-[4-(5-chloropyridin-2-yl)piperazin-1-yl]-2-oxoethyl]oxolan-2-yl]pyrrolidin-1-yl]-4-(trifluoromethyl)-2,3-dihydropyridazin-3-one]
0.1 to 1 | O=C(C[C@@H]1CC[C@H]([C@@H]2CCCN2c2cn[nH]c(=O)c2C(F)(F)F)O1)N1CCN(c2ccc(Cl)cn2)CC1 [Example 148B, 5-[(2S)-2-[(2R,5S)-5-[2-[4-(5-chloropyridin-2-yl)piperazin-1-yl]-2-oxoethyl]oxolan-2-yl]pyrrolidin-1-yl]-4-(trifluoromethyl)-2,3-dihydropyridazin-3-one]
< 0.1 | O=C(C[C@H]1CC[C@H]([C@@H]2CCCN2c2cn[nH]c(=O)c2C(F)(F)F)O1)N1CCN(c2ccc(Cl)cn2)CC1 [Example 148C, 5-[(2S)-2-[(2R,5R)-5-[2-[4-(5-chloropyridin-2-yl)piperazin-1-yl]-2-oxoethyl]oxolan-2-yl]pyrrolidin-1-yl]-4-(trifluoromethyl)-2,3-dihydropyridazin-3-one]
< 0.1 | O=C(C[C@H]1CC[C@@H]([C@@H]2CCCN2c2cn[nH]c(=O)c2C(F)(F)F)O1)N1CCN(c2ccc(Cl)cn2)CC1 [Example 148D, 5-[(2S)-2-[(2S,5R)-5-[2-[4-(5-chloropyridin-2-yl)piperazin-1-yl]-2-oxoethyl]oxolan-2-yl]pyrrolidin-1-yl]-4-(trifluoromethyl)-2,3-dihydropyridazin-3-one]
< 0.1 | O=C(C[C@@H]1CC[C@@H]([C@@H]2CCCN2c2cn[nH]c(=O)c2C(F)(F)F)O1)N1CCN(c2ncc(C(F)(F)F)cn2)CC1 [Example 149A, 5-[(2S)-2-[(2S,5S)-5-(2-oxo-2-[4-[5-(trifluoromethyl)pyrimidin-2-yl]piperazin-1-yl]ethyl)oxolan-2-yl]pyrrolidin-1-yl]-4-(trifluoromethyl)-2,3-dihydropyridazin-3-one]
< 0.1 | O=C(C[C@H]1CC[C@@H]([C@@H]2CCCN2c2cn[nH]c(=O)c2C(F)(F)F)O1)N1CCN(c2ncc(C(F)(F)F)cn2)CC1 [Example 149B, 5-[(2S)-2-[(2S,5R)-5-(2-oxo-2-[4-[5-(trifluoromethyl)pyrimidin-2-yl]piperazin-1-yl]ethyl)oxolan-2-yl]pyrrolidin-1-yl]-4-(trifluoromethyl)-2,3-dihydropyridazin-3-one]
< 0.1 | O=C(C[C@@H]1CC[C@H]([C@@H]2CCCN2c2cn[nH]c(=O)c2C(F)(F)F)O1)N1CCN(c2ncc(C(F)(F)F)cn2)CC1 [Example 149C, 5-[(2S)-2-[(2R,5S)-5-(2-oxo-2-[4-[5-(trifluoromethyl)pyrimidin-2-yl]piperazin-1-yl]ethyl)oxolan-2-yl]pyrrolidin-1-yl]-4-(trifluoromethyl)-2,3-dihydropyridazin-3-one]
< 0.1 | O=C(C[C@H]1CC[C@H]([C@@H]2CCCN2c2cn[nH]c(=O)c2C(F)(F)F)O1)N1CCN(c2ncc(C(F)(F)F)cn2)CC1 [Example 149D, 5-[(2S)-2-[(2R,5R)-5-(2-oxo-2-[4-[5-(trifluoromethyl)pyrimidin-2-yl]piperazin-1-yl]ethyl)oxolan-2-yl]pyrrolidin-1-yl]-4-(trifluoromethyl)-2,3-dihydropyridazin-3-one]

Compound | IC50 [µM]
N#Cc1ccc(N2CCN(C(=O)CCNC[C@H]3c4ccccc4CN3c3cn[nH]c(=O)c3C(F)(F)F)CC2)nc1 [Example 146B, 6-[4-[3-([[(1R)-2-[6-oxo-5-(trifluoromethyl)-1,6-dihydropyridazin-4-yl]-2,3-dihydro-1H-isoindo1-1-yl]methyl]amino)propanoyl]piperazin-1-yl]pyridine-3-carbonitrile] | < 0.1
